What was measured:
[1] = broad dose range of 1 to 100 mg; cited from earlier work
[2] = preclinical pharmacology studies; cited from earlier work
5-HT receptor = conditions: compared within the triptan class; cited from earlier work
migraine = conditions: cited from earlier work
[3] = tested on: cytochrome P450 isoenzymes; conditions: cited from earlier work
plasma proteins = conditions: cited from earlier work
[4] = Particle size of spray-dried powder (Predictive Example); assay type: physicochemical; conditions: spray dried from 10% w/v feedstock
Experimental: A feedstock comprising 10% w/v frovatriptan succinate was fed to an in-house spray-dryer and was spray dried at the following settings: feed rate=2.1 g/min, inlet temp=130° C., outlet temp=66° C., atomisation=2-fluid nozzle, atomisation pressure=2 barg, atomisation air flow rate=21 l/min, drying air pressure=1 barg, drying air flow rate=5 l/sec. A respirable powder of less than 10 microns was produced which could then be administered to a patient in need of rapid relief from a migraine using the unit-dose dry powder inhaler of the invention.

particle size of respirable powder [4] | Structure (SMILES) | tolerability [1] | cerebro-selectivity [2] | 5-HT potency (5-HT receptor) | response rates (migraine; compared with placebo) | headache recurrence rates (migraine; compared within the triptan class) | inhibiting or inducing effects on cytochrome P450 isoenzymes [3] | binding to plasma proteins (plasma proteins)
– | CN[C@@H]1CCc2[nH]c3ccc(C(N)=O)cc3c2C1 [Frovatriptan] | well-tolerated | apparently cerebro-selective | highest 5-HT potency in the triptan class | significantly higher response rates compared with placebo | lowest reported range of headache recurrence rates in the triptan class | no inhibiting or inducing effects | only slightly bound
less than 10 microns | CN[C@@H]1CCc2[nH]c3ccc(C(N)=O)cc3c2C1 [frovatriptan succinate] | – | – | – | – | – | – | –

Reference: patent US20120132204A1, “UNIT DOSE DRY POWDER INHALER” (priority 2005, published 2012)
